Assay results published in patent US20240140980A1, “HETEROCYCLIC INHIBITORS OF CD73 FOR TREATMENT OF DISEASE” (Teon Therapeutics, Inc., priority 2022, published 2024).

Target: CD73 (Homo sapiens (Human), UniProt P21589)
Assay: Biochemical CD73 Assay (Malachite Green free phosphate detection)
Conditions: recombinant human CD73 2 nM, AMP 40 μM, 45 min at 37° C.
Description: Activity of recombinant CD73 was measured by quantification of free phosphate using the Malachite Green detection system (R&D Systems #DY996). Test compounds were solubilized in DMSO and dispensed into 384-well polystyrene plates in a 8-point 3× titration in duplicates. Then, 10 μL of 4 nM human CD73 enzyme (Novoprotein #C446) in phosphate-free assay buffer (10 mM HEPES, pH 7.4, 125 mM NaCl, 1 mM KCl, 10 mM glucose, 2 mM MgCl2) was added to the plates. The compound and enzyme were incubated for 15 min at RT. Then, 10 μL of 80 μM AMP (Sigma Aldrich #A1752) in the assay buffer was added and the reaction mixture was incubated for 45 min at 37° C. The final concentrations of CD73 and AMP in the reaction were 2 nM and 40 μM, respectively. The reaction was stopped by adding 5 μL of Malachite Green reagent A and incubating for 10 min at RT, followed by addition of 5 μL of Malachite Green reagent B and incubation for 20 min at RT. Absorbance was then read at 620 nm with the Flexstation spectrophotometer (Molecular Devices). The IC50 values were determined using a four-parameter nonlinear regression curve fit.

Sequence of CD73 (P21589 27-574): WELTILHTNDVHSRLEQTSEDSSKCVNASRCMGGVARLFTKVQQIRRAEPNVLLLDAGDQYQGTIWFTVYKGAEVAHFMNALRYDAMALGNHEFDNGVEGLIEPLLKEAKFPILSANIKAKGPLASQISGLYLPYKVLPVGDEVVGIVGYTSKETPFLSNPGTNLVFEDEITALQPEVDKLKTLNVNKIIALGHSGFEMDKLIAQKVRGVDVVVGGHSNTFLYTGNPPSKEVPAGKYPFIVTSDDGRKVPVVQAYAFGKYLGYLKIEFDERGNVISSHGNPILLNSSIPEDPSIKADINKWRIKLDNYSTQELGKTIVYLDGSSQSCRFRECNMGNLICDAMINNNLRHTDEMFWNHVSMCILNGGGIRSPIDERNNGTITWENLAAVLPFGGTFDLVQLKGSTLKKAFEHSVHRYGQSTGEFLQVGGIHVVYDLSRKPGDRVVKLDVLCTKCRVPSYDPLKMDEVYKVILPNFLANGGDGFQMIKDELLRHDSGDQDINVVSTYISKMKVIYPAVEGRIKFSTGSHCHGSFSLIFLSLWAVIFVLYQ

| IC50 [nM] | Compound |
| --- | --- |
| 10 | CNC(=O)N[S@](C)(=O)=NC(=O)[C@@](COC)(OC[C@H]1O[C@@H](n2ncc3c(NC4CCCC4)cc(Cl)nc32)[C@H](O)[C@@H]1O)P(=O)(O)O [Example 29, ((S)-2-(((2R,3S,4R,5R)-5-(6-chloro-4-(cyclopentylamino)-1H-pyrazolo[3,4-b]pyridin-1-yl)-3,4-dihydroxytetrahydrofuran-2-yl)methoxy)-3-methoxy-1-(((R)-methyl(3-methylureido)(oxo)-λ^6-sulfaneylidene)amino)-1-oxopropan-2-yl)phosphonic Acid] |
| 0.5 | COC[C@@](OC[C@H]1O[C@@H](n2ncc3c(NC4CCCC4)cc(Cl)nc32)[C@H](O)[C@@H]1O)(C(=O)N=[S@@](C)(=O)NC(C)=O)P(=O)(O)O [Example 31, ((S)-1-(((R)-acetamido(methyl)(oxo)-λ^6-sulfaneylidene)amino)-2-(((2R,3S,4R,5R)-5-(6-chloro-4-(cyclopentylamino)-1H-pyrazolo[3,4-b]pyridin-1-yl)-3,4-dihydroxytetrahydrofuran-2-yl)methoxy)-3-methoxy-1-oxopropan-2-yl)phosphonic Acid] |
| 1 | COC[C@@](OC[C@H]1O[C@@H](n2ncc3c(NC4CCCC4)cc(Cl)nc32)[C@H](O)[C@@H]1O)(C(=O)N=[S@](C)(=O)NC(C)=O)P(=O)(O)O [Example 32, ((S)-1-(((S)-acetamido(methyl)(oxo)-λ^6-sulfaneylidene)amino)-2-(((2R,3S,4R,5R)-5-(6-chloro-4-(cyclopentylamino)-1H-pyrazolo[3,4-b]pyridin-1-yl)-3,4-dihydroxytetrahydrofuran-2-yl)methoxy)-3-methoxy-1-oxopropan-2-yl)phosphonic Acid] |
| 879 | COC[C@](OC[C@H]1O[C@@H](n2ncc3c(NC4CCCC4)nc(Cl)nc32)[C@H](O)[C@@H]1O)(C(=O)N=[S@@](C)(=O)NC(=O)OC)P(=O)(O)O [Example 8, ((R)-2-(((2R,3S,4R,5R)-5-(6-Chloro-4-(cyclopentylamino)-1H-pyrazolo[3,4-d]pyrimidin-1-yl)-3,4-dihydroxytetrahydrofuran-2-yl)methoxy)-3-methoxy-1-(((R)-((methoxycarbonyl)amino)(methyl)(oxo)-λ^6-sulfaneylidene)amino)-1-oxopropan-2-yl)phosphonic Acid] |
| 275 | COC[C@](OC[C@H]1O[C@@H](n2ncc3c(NC4CCCC4)nc(Cl)nc32)[C@H](O)[C@@H]1O)(C(=O)N=[S@@](C)(N)=O)P(=O)(O)O [Example 4, ((2R)-1-((Amino(methyl)(oxo)-λ^6-sulfaneylidene)amino)-2-(((2R,3S,4R,5R)-5-(6-chloro-4-(cyclopentylamino)-1H-pyrazolo[3,4-d]pyrimidin-1-yl)-3,4-dihydroxytetrahydrofuran-2-yl)methoxy)-3-methoxy-1-oxopropan-2-yl)phosphonic Acid] |
| 1 | COC[C@@](OC[C@H]1O[C@@H](n2ncc3c(NC4CCCC4)cc(Cl)nc32)[C@H](O)[C@@H]1O)(C(=O)N=[S@](C)(=O)NC(=O)C1CC1)P(=O)(O)O [Example 28, ((S)-2-(((2R,3S,4R,5R)-5-(6-chloro-4-(cyclopentylamino)-1H-pyrazolo[3,4-b]pyridin-1-yl)-3,4-dihydroxytetrahydrofuran-2-yl)methoxy)-1-(((S)-cyclopropanecarboxamido(methyl)(oxo)-λ^6-sulfaneylidene)amino)-3-methoxy-1-oxopropan-2-yl)phosphonic Acid] |
| 2.3 | COC[C@@](OC[C@H]1O[C@@H](n2ncc3c(NC4CCCC4)nc(Cl)nc32)[C@H](O)[C@@H]1O)(C(=O)N=[S@](C)(=O)NC(=O)c1cnn(C)c1)P(=O)(O)O (single isomer, unassigned) [Example 24] |
| 11 | COC[C@@](OC[C@H]1O[C@@H](n2ncc3c(NC4CCCC4)cc(Cl)nc32)[C@H](O)[C@@H]1O)(C(=O)N=[S@@](C)(=O)NC(=O)C(C)C)P(=O)(O)O [Example 33, ((2S)-2-(((2R,3S,4R,5R)-5-(6-chloro-4-(cyclopentylamino)-1H-pyrazolo[3,4-b]pyridin-1-yl)-3,4-dihydroxytetrahydrofuran-2-yl)methoxy)-1-((isobutyramido(methyl)(oxo)-λ^6-sulfaneylidene)amino)-3-methoxy-1-oxopropan-2-yl)phosphonic Acid] |
| 220 | COC[C@](OC[C@H]1O[C@@H](n2ncc3c(NC4CCCC4)nc(Cl)nc32)[C@H](O)[C@@H]1O)(C(=O)N=[S@@](C)(=O)NC(C)=O)P(=O)(O)O [Example 6, ((R)-1-(((R)-Acetamido(methyl)(oxo)-λ^6-sulfaneylidene)amino)-2-(((2R,3S,4R,5R)-5-(6-chloro-4-(cyclopentylamino)-1H-pyrazolo[3,4-d]pyrimidin-1-yl)-3,4-dihydroxytetrahydrofuran-2-yl)methoxy)-3-methoxy-1-oxopropan-2-yl)phosphonic Acid] |
| 0.6 | CNC(=O)N[S@@](C)(=O)=NC(=O)[C@@](COC)(OC[C@H]1O[C@@H](n2ncc3c(NC4CCCC4)cc(Cl)nc32)[C@H](O)[C@@H]1O)P(=O)(O)O [Example 30, ((S)-2-(((2R,3S,4R,5R)-5-(6-chloro-4-(cyclopentylamino)-1H-pyrazolo[3,4-b]pyridin-1-yl)-3,4-dihydroxytetrahydrofuran-2-yl)methoxy)-3-methoxy-1-(((S)-methyl(3-methylureido)(oxo)-λ^6-sulfaneylidene)amino)-1-oxopropan-2-yl)phosphonic Acid] |
| 5.1 | COC[C@@](OC[C@H]1O[C@@H](n2ncc3c(NC4CCCC4)nc(Cl)nc32)[C@H](O)[C@@H]1O)(C(=O)N=S(C)(=O)NC(=O)C1COC1)P(=O)(O)O (single isomer, unassigned) [Example 21] |
| 19 | COC[C@](OC[C@H]1O[C@@H](n2ncc3c(NC4CCCC4)nc(Cl)nc32)[C@H](O)[C@@H]1O)(C(=O)N=[S@](C)(N)=O)P(=O)(O)O [Example 2, ((2R)-1-((Amino(methyl)(oxo)-λ^6-sulfaneylidene)amino)-2-(((2R,3S,4R,5R)-5-(6-chloro-4-(cyclopentylamino)-1H-pyrazolo[3,4-d]pyrimidin-1-yl)-3,4-dihydroxytetrahydrofuran-2-yl)methoxy)-3-methoxy-1-oxopropan-2-yl)phosphonic Acid] |
| 0.21 | COC[C@@](OC[C@H]1O[C@@H](n2ncc3c(NC4CCCC4)nc(Cl)nc32)[C@H](O)[C@@H]1O)(C(=O)N=[S@](C)(=O)NC(=O)C1COC1)P(=O)(O)O [Example 22, ((2S)-2-(((2R,3S,4R,5R)-5-(6-chloro-4-(cyclopentylamino)-1H-pyrazolo[3,4-d]pyrimidin-1-yl)-3,4-dihydroxytetrahydrofuran-2-yl)methoxy)-3-methoxy-1-((methyl(oxetane-3-carboxamido)(oxo)-λ^6-sulfaneylidene)amino)-1-oxopropan-2-yl)phosphonic Acid] |
| 1.6 | COC[C@@](OC[C@H]1O[C@@H](n2ncc3c(NC4CCCC4)nc(Cl)nc32)[C@H](O)[C@@H]1O)(C(=O)N=[S@@](C)(=O)NC(C)=O)P(=O)(O)O [Example 5, ((S)-1-(((R)-Acetamido(methyl)(oxo)-λ^6-sulfaneylidene)amino)-2-(((2R,3S,4R,5R)-5-(6-chloro-4-(cyclopentylamino)-1H-pyrazolo[3,4-d]pyrimidin-1-yl)-3,4-dihydroxytetrahydrofuran-2-yl)methoxy)-3-methoxy-1-oxopropan-2-yl)phosphonic Acid] |
| 7.8 | COC[C@@](OC[C@H]1O[C@@H](n2ncc3c(NC4CCCC4)nc(Cl)nc32)[C@H](O)[C@@H]1O)(C(=O)N=[S@@](C)(=O)NC(=O)c1cccnc1)P(=O)(O)O [Example 27, ((2S)-2-(((2R,3S,4R,5R)-5-(6-chloro-4-(cyclopentylamino)-1H-pyrazolo[3,4-d]pyrimidin-1-yl)-3,4-dihydroxytetrahydrofuran-2-yl)methoxy)-3-methoxy-1-((methyl(nicotinamido)(oxo)-λ^6-sulfaneylidene)amino)-1-oxopropan-2-yl)phosphonic Acid] |
| 2.36 | COC[C@@](OC[C@H]1O[C@@H](n2ncc3c(NC4CCCC4)nc(Cl)nc32)[C@H](O)[C@@H]1O)(C(=O)N=[S@](C)(=O)NC(=O)c1ccc(F)cc1)P(=O)(O)O (single isomer, unassigned) [Example 26] |
| 1.13 | COC[C@@](OC[C@H]1O[C@@H](n2ncc3c(NC4CCCC4)nc(Cl)nc32)[C@H](O)[C@@H]1O)(C(=O)N=[S@@](C)(=O)NC(=O)c1ccc(F)cc1)P(=O)(O)O (single isomer, unassigned) [Example 25] |
| 1.7 | COC[C@@](OC[C@H]1O[C@@H](n2ncc3c(NC4CCCC4)nc(Cl)nc32)[C@H](O)[C@@H]1O)(C(=O)N=[S@@](C)(=O)NC(=O)OC)P(=O)(O)O [Example 7, ((S)-2-(((2R,3S,4R,5R)-5-(6-Chloro-4-(cyclopentylamino)-1H-pyrazolo[3,4-d]pyrimidin-1-yl)-3,4-dihydroxytetrahydrofuran-2-yl)methoxy)-3-methoxy-1-(((R)-((methoxycarbonyl)amino)(methyl)(oxo)-λ^6-sulfaneylidene)amino)-1-oxopropan-2-yl)phosphonic Acid] |
| 0.47 | COC[C@@](OC[C@H]1O[C@@H](n2ncc3c(NC4CCCC4)nc(Cl)nc32)[C@H](O)[C@@H]1O)(C(=O)N=[S@@](C)(=O)NC(=O)c1cnn(C)c1)P(=O)(O)O (single isomer, unassigned) [Example 23] |
